For one assay, the target named is PI 3-kinase beta (Homo sapiens (Human), UniProt P42338). Particulars: read-out: Assay B PI3Kβ IC50.
The target in another assay is PI 4-kinase beta (Homo sapiens (Human), UniProt Q9UBF8). Conditions: read-out: Assay D PI4Kβ IC50.
Another assay concerns the target Vps34 (Homo sapiens (Human), UniProt Q8NEB9). Conditions: read-out: Assay C VPS34 IC50.
For a further assay, the target named is PI 3-kinase alpha (Homo sapiens (Human), UniProt P42336). Conditions: read-out: Assay A PI3Kα IC50.
Sequence of PI 3-kinase alpha (P42336 whole entry, looked up): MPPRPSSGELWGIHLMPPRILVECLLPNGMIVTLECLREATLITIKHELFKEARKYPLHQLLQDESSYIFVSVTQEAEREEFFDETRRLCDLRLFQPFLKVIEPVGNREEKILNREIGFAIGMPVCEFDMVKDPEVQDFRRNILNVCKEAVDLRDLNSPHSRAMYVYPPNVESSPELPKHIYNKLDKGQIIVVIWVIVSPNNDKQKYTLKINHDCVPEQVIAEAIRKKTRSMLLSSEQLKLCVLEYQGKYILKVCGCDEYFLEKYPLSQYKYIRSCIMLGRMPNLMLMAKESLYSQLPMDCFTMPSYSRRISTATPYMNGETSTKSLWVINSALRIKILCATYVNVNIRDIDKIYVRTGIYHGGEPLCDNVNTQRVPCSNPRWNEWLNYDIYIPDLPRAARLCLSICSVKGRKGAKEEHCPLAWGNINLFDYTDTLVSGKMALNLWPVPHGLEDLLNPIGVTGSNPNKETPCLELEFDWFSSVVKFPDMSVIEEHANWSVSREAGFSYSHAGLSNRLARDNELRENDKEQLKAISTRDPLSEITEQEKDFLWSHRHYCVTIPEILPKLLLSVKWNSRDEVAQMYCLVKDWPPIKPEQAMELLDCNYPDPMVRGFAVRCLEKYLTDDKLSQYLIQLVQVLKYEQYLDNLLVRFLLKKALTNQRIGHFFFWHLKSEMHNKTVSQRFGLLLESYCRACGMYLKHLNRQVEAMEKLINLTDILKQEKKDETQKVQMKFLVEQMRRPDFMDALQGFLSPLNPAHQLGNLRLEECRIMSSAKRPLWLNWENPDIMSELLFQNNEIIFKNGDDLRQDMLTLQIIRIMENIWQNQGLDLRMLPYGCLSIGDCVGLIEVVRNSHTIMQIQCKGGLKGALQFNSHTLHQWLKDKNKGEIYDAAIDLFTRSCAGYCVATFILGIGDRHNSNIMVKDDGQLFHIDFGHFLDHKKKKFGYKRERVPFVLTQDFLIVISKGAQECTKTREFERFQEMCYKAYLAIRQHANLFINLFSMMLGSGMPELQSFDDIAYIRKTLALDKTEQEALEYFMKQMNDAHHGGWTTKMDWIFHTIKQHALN
Sequence of PI 3-kinase alpha (P27986 whole entry partner, looked up): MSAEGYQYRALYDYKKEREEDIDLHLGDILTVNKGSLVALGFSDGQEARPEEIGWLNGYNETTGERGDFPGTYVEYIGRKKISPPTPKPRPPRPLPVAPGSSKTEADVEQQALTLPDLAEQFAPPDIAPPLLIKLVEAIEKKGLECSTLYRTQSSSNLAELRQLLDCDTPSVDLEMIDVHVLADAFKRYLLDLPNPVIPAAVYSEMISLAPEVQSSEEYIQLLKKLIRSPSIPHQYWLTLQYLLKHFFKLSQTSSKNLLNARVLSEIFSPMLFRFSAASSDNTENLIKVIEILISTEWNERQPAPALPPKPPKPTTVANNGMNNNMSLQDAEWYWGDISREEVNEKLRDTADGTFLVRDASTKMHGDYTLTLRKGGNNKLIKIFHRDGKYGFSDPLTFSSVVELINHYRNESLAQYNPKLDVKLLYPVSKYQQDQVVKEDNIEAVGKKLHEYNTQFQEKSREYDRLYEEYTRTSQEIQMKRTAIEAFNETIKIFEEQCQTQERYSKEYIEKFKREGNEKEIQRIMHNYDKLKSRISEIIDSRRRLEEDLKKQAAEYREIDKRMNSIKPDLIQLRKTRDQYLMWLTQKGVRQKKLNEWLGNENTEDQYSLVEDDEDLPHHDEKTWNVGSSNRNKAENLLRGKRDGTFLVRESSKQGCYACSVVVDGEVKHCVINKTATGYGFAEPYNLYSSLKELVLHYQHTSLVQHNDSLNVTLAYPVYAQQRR
Another assay addresses mTOR (Homo sapiens (Human), UniProt P42345). Conditions: read-out: Assay G mTOR IC50.

The text below walks through data of patent publication US10112926B2 (priority 2014, dated 2018).

pIC50: −log10 of the molar value. Where a name gives a salt, the structure may show the parent alone.

Sequence of Vps34 (Q8NEB9 whole entry): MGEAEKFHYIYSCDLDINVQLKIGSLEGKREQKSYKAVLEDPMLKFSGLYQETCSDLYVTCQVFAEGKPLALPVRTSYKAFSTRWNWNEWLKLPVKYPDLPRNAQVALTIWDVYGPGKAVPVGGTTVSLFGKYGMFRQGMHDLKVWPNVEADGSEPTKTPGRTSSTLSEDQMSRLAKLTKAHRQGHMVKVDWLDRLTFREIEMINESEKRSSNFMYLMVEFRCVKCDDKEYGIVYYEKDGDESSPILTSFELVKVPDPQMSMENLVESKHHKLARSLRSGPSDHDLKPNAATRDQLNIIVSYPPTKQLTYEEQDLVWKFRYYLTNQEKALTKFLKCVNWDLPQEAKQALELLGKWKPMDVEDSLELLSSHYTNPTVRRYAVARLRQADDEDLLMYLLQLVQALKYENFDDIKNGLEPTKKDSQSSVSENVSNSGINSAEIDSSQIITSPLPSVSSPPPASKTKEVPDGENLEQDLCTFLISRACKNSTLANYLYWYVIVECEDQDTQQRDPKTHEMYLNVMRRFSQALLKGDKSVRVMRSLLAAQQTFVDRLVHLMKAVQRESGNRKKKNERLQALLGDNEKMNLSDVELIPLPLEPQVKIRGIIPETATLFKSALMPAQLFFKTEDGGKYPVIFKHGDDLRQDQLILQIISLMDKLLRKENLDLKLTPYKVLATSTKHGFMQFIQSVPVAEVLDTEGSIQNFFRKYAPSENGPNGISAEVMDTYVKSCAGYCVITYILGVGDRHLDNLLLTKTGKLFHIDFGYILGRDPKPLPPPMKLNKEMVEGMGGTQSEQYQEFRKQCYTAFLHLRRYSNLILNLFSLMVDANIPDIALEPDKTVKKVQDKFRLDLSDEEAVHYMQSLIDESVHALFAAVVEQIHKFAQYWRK
Sequence of PI 3-kinase beta (P42338 whole entry, looked up): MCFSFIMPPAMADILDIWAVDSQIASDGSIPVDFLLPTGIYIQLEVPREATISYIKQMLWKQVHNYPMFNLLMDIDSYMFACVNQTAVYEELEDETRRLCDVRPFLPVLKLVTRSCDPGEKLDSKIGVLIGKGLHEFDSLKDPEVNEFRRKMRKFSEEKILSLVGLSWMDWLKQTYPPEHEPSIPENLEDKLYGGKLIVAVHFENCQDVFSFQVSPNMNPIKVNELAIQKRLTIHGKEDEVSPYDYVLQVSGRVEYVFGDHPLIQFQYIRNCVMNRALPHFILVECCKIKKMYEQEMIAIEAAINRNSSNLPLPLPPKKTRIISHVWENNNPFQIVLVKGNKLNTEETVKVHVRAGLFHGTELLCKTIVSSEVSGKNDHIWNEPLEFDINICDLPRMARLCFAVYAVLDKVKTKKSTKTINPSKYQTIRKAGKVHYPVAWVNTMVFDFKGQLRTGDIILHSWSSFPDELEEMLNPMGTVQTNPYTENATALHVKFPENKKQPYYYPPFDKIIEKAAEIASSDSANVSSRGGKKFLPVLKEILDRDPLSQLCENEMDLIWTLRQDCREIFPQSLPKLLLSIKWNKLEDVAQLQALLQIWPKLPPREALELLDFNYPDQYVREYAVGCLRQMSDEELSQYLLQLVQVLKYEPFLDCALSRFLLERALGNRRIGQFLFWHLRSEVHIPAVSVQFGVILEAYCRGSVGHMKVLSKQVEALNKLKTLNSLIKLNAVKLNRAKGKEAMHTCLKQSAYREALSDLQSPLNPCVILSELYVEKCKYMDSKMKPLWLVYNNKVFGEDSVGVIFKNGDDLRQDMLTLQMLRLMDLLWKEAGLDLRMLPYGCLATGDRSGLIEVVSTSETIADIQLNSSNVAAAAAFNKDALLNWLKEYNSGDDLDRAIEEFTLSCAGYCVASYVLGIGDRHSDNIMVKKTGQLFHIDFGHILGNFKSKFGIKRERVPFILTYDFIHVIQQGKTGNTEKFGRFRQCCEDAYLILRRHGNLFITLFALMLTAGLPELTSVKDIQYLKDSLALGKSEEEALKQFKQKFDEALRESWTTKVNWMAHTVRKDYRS
Sequence of PI 3-kinase beta (P27986 whole entry partner, looked up): as the sequence (P27986 whole entry partner, looked up) above
Sequence of PI 4-kinase beta (Q9UBF8 whole entry): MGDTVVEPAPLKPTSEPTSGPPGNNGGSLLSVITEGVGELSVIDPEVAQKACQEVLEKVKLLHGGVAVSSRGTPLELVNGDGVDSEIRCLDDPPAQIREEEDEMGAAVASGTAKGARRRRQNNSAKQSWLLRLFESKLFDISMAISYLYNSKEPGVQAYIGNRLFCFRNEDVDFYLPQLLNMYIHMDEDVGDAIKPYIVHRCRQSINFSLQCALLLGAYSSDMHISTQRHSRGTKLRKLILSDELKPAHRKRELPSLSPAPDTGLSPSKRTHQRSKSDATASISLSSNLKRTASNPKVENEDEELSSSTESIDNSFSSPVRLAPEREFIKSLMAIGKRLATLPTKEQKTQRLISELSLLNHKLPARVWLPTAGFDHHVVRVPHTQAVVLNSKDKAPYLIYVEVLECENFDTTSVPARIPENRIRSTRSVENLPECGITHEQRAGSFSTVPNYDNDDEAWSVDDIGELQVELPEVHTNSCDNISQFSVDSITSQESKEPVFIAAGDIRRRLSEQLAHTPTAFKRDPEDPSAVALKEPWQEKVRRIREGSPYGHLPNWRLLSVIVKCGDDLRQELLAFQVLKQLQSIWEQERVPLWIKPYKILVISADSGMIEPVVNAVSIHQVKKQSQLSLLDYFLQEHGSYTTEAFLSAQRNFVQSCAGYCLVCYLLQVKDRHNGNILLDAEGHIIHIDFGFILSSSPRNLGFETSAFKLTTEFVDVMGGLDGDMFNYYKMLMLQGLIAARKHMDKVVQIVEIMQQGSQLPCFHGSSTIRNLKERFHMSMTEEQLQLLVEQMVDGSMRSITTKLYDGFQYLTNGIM

On to `Cc1ncc(-c2cc(-c3cc(S(=O)(=O)NCC4COC4)ccc3C)cnc2N)s1` [Example 83.2, 3-(6-Amino-5-(2-methylthiazol-5-yl)pyridin-3-yl)-4-methyl-N-(oxetan-3-ylmethyl)benzenesulfonamide], for which the negative logarithm of the IC50 (pIC50) on PI 3-kinase beta is 5.21; on PI 4-kinase beta, 5.62; at Vps34, 5.21; at PI 3-kinase alpha it was 6.40.
In the case of `Cc1ncc(-c2cc(-c3cc(S(=O)(=O)NC4CCC(O)(C(F)(F)F)C4)ccc3C)cnc2N)o1` (stereo not drawn) [Example 114.4, 3-(6-amino-5-(2-methyloxazol-5-yl)pyridin-3-yl)-N-(3-hydroxy-3-(trifluoromethyl)cyclo-pentyl)-4-methylbenzenesulfon-amide], the pIC50 is 5.92 at PI 3-kinase beta, 6.20 at PI 4-kinase beta, 5.92 on Vps34 and 7.10 on PI 3-kinase alpha.
Turning to `Cc1noc(-c2cc(-c3cc(S(=O)(=O)NCCN)ccc3C)cnc2N)n1` [Example 37.29, 3-(6-Amino-5-(3-methyl-1,2,4-oxadiazol-5-yl)pyridin-3-yl)-N-(2-aminoethyl)-4-methylbenzenesulfonamide], the negative logarithm of the IC50 (pIC50) at PI 3-kinase beta was 6.04; at PI 4-kinase beta it was 5.15; at mTOR, < 5.00; at Vps34, < 5.00; at PI 3-kinase alpha it was 6.04.
Consider `Cc1cnn(-c2cc(-c3cc(S(=O)(=O)NCC(C)(C)O)ccc3C)cnc2N)c1` [Example 60, 3-(6-Amino-5-(4-methyl-1H-pyrazol-1-yl)pyridin-3-yl)-N-(2-hydroxy-2-methylpropyl)-4-methylbenzenesulfonamide], for which the pIC50 on PI 3-kinase beta, on mTOR and on Vps34 was < 5.00 in each case.
Consider `Cc1nnc(-c2cc(-c3cc(S(=O)(=O)NCCC(C)(C)O)ccc3C)cnc2N)o1` [Example 5.6, 3-(6-Amino-5-(5-methyl-1,3,4-oxa-diazol-2-yl)pyridin-3-yl)-N-(3-hydroxy-3-methylbutyl)-4-methylbenzenesulfon-amide], for which the pIC50 on PI 3-kinase beta is 5.35; on PI 4-kinase beta it was 5.11; on mTOR, < 5.00; on Vps34, < 5.00; at PI 3-kinase alpha, 6.15.
On to `Cc1ccc(S(=O)(=O)NC2CC3(CC(O)C3)C2)cc1-c1cnc(N)c(-c2cn(C)nc2C)c1` (stereo not drawn) [Example 26, 3-(6-Amino-5-(1,3-dimethyl-1H-pyrazol-4-yl)pyridin-3-yl)-N-(6-hydroxyspiro[3.3]heptan-2-yl)-4-methylbenzenesulfonamide], for which the pIC50 was 5.52 at PI 3-kinase beta; 5.47 at PI 4-kinase beta; 6.49 at mTOR; < 5.00 on Vps34; 6.66 on PI 3-kinase alpha.
Turning to `Cc1cc(-c2cc(-c3cc(S(=O)(=O)N[C@H]4CC[C@H](O)CC4)ccc3C)cnc2N)on1` [Example 5.4, trans 3-(6-Amino-5-(3-methylisoxazol-5-yl)pyridin-3-yl)-N-(-4-hydroxycyclohexyl)-4-methylbenzenesulfon-amide hydrochloride], the pIC50 on Vps34 was < 5.00; at PI 3-kinase alpha it was 6.60.
As for `Cc1ncc(-c2cc(-c3cc(S(=O)(=O)NCC4(O)CC4)ccc3C)cnc2N)o1` [Example 114.1, 3-(6-amino-5-(2-methyloxazol-5-yl)pyridin-3-yl)-N-((1-hydroxycyclopropyl)methyl)-4-methylbenzenesulfon-amide], the negative-log IC50 (pIC50) is 5.35 at PI 4-kinase beta, 5.47 at Vps34 and 6.60 at PI 3-kinase alpha.
On to `Cc1cc(-c2cc(-c3cc(S(=O)(=O)N4CC[C@H](N(C)C)C4)ccc3C)cnc2N)on1` [Example 19.22, (S)-5-(5-((3-(dimethylamino)pyrrolidin-1-yl)sulfonyl)-2-methylphenyl)-3-(3-methylisoxazol-5-yl)pyridin-2-amine acetic acid salt], for which the pIC50 at PI 3-kinase beta is 5.24; on PI 4-kinase beta, 5.07; on Vps34 it was < 5.00; on PI 3-kinase alpha, 5.70.
The like results for `Cc1ncc(-c2cc(-c3cc(S(=O)(=O)N[C@H]4CCC[C@H](O)C4)ccc3C)cnc2N)o1` [Example 112, 3-(6-amino-5-(2-methyloxazol-5-yl)pyridin-3-yl)-N-((1S,3S)-3-hydroxycyclohexyl)-4-methylbenzenesulfonamide] were, in that order, 6.18, 6.14, 5.46 and 6.85.
For the molecule `Cc1cc(-c2cc(-c3cc(S(=O)(=O)N4CC(C)(O)C4)ccc3C)cnc2N)on1` [Example 37.28, 1-((3-(6-Amino-5-(3-methylisoxazol-5-yl)pyridin-3-yl)-4-methylphenyl)sulfonyl)-3-methylazetidin-3-ol], the pIC50 on PI 3-kinase beta is 5.42; at PI 4-kinase beta it was 5.55; on Vps34, < 5.00.
For the molecule `Cc1ncc(-c2cc(-c3cc(S(=O)(=O)NCC(C)(C)CO)ccc3C)cnc2N)s1` [Example 83.4, 3-(6-Amino-5-(2-methylthiazol-5-yl)pyridin-3-yl)-N-(3-hydroxy-2,2-dimethylpropyl)-4-methylbenzenesulfonamide], the pIC50 at PI 3-kinase beta is 5.68; at PI 4-kinase beta, 5.89; at Vps34, 5.66; at PI 3-kinase alpha, 6.46.
As to `Cc1ncc(-c2cc(-c3cc(S(=O)(=O)NCC4(O)CCOCC4)ccc3C)cnc2N)o1` [Example 114.3, 3-(6-amino-5-(2-methyloxazol-5-yl)pyridin-3-yl)-N-((4-hydroxytetrahydro-2H-pyran-4-yl)methyl)-4-methylbenzenesulfon-amide], the pIC50 at PI 3-kinase beta was 5.08; on PI 4-kinase beta, 5.09; at Vps34, < 5.00; at PI 3-kinase alpha it was 6.23.
Consider `Cc1ncc(-c2cc(-c3cc(S(=O)(=O)NCC4CCCOC4)ccc3C)cnc2N)o1` (stereo not drawn) [Example 104.8, 3-(6-amino-5-(2-methyloxazol-5-yl)pyridin-3-yl)-4-methyl-N-((tetrahydro-2H-pyran-3-yl)methyl)benzenesulfon-amide], for which the results for the pIC50 at PI 3-kinase beta, at PI 4-kinase beta and on Vps34 were 6.10, 5.70 and 5.32, respectively.
With `Cc1cc(-c2cc(-c3cc(S(=O)(=O)N[C@H]4CC[C@H](O)CC4)ccc3C)cnc2N)ccn1` [Example 4.3, trans 3-(2-Amino-2′-methyl-[3,4′-bipyridin]-5-yl)-N-(4-hydroxycyclohexyl)-4-methyl-benzenesulfonamide], the pIC50 on PI 3-kinase beta is 5.14; on PI 4-kinase beta, 5.77; at mTOR, 5.14; at Vps34, < 5.00; at PI 3-kinase alpha it was 6.59.
Regarding `Cc1ncc(-c2cc(-c3cc(S(=O)(=O)NC4CC5(CC(O)C5)C4)ccc3C)cnc2N)s1` (stereo not drawn) [Example 28, 3-(6-Amino-5-(2-methylthiazol-5-yl)pyridin-3-yl)-N-(6-hydroxyspiro[3.3]heptan-2-yl)-4-methylbenzenesulfonamide], the pIC50 on PI 3-kinase beta was 6.35; on PI 4-kinase beta it was 6.17; on Vps34, 5.70; on PI 3-kinase alpha, 7.30.
For `Cc1ccc(S(=O)(=O)N[C@H]2CC[C@H](O)CC2)cc1-c1cnc(N)c(-c2cnn(C)c2)c1` [Example 4.1, trans 3-(6-Amino-5-(1-methyl-1H-pyrazol-4-yl)pyridin-3-yl)-N-(4-hydroxycyclohexyl)-4-methylbenzene-sulfonamide], the pIC50 on PI 3-kinase beta was 5.80; at PI 4-kinase beta, 5.41; at mTOR it was 5.02; at Vps34, 5.18; at PI 3-kinase alpha it was 6.55.
On to `Cc1cc(-c2cc(-c3cc(S(=O)(=O)NC[C@@H]4CCCO4)ccc3C)cnc2N)on1` [Example 40, (S)-3-(6-Amino-5-(3-methylisoxazol-5-yl)pyridin-3-yl)-4-methyl-N-((tetrahydrofuran-2-yl)methyl)benzenesulfonamide], for which the pIC50 was 5.40 on PI 3-kinase beta, 5.49 at PI 4-kinase beta and < 5.00 at Vps34.
For `Cc1ncc(-c2cc(-c3cc(S(=O)(=O)NC(CO)C(F)(F)F)ccc3C)cnc2N)o1` (stereo not drawn) [Example 114.2, 3-(6-amino-5-(2-methyloxazol-5-yl)pyridin-3-yl)-4-methyl-N-(1,1,1-trifluoro-3-hydroxypropan-2-yl)benzenesulfonamide], the pIC50 at PI 3-kinase beta is 5.55; at PI 4-kinase beta, 5.64; on Vps34, 5.36; at PI 3-kinase alpha, 6.39.
For the molecule `Cc1noc(-c2cc(-c3cc(S(=O)(=O)NCC(C)(C)O)c(C)cc3F)cnc2N)n1` [Example 113, 5-(6-amino-5-(3-methyl-1,2,4-oxadiazol-5-yl)pyridin-3-yl)-4-fluoro-N-(2-hydroxy-2-methylpropyl)-2-methylbenzenesulfonamide], the pIC50 at PI 3-kinase beta is 5.05; at Vps34 it was < 5.00; on PI 3-kinase alpha, 5.94.
Regarding `Cc1ncc(-c2cc(-c3cc(S(=O)(=O)NCCO)ccc3C)cnc2N)s1` [Example 83.5, 3-(6-Amino-5-(2-methylthiazol-5-yl)pyridin-3-yl)-N-(2-hydroxyethyl)-4-methylbenzenesulfonamide], the pIC50 was 5.47 on PI 3-kinase beta, 5.55 at PI 4-kinase beta, 5.28 at Vps34 and 6.37 at PI 3-kinase alpha.
For the molecule `Cc1cc(-c2cc(-c3cc(S(=O)(=O)NCC(F)(F)F)ccc3C)cnc2N)on1` [Example 39, 3-(6-Amino-5-(3-methylisoxazol-5-yl)pyridin-3-yl)-4-methyl-N-(2,2,2-trifluoroethyl)benzenesulfonamide], the negative-log IC50 (pIC50) is 5.43 at PI 3-kinase beta, 5.89 on PI 4-kinase beta, < 5.00 at Vps34 and 6.35 on PI 3-kinase alpha.
Turning to `Cc1cccc(NS(=O)(=O)c2ccc(C)c(-c3cnc(N)c(-c4cnn(C)c4)c3)c2)n1` [Example 30, 3-(6-Amino-5-(1-methyl-1H-pyrazol-4-yl)pyridin-3-yl)-4-methyl-N-(6-methylpyridin-2-yl)benzenesulfonamide], the pIC50 was 5.82 on PI 3-kinase beta; 5.51 on PI 4-kinase beta; 5.33 on mTOR; < 5.00 on Vps34; 6.48 at PI 3-kinase alpha.
